# Data taken from patent US11213522B2, “Autoimmune-induced glutamatergic receptor dysfunction methods and treatments” (SARAH HERZOG MEMORIAL HOSPITAL EZRAT NASHIM ASSOCIATION, priority 2013, dated 2022).
# System: Rodent neuron cell cultures treated with anti-NMDAR antibodies
# Experiment: Example 3: NMDAR localization in neuron cultures treated with anti-NMDAR antibodies
# Assay type: cell-based
# Details: Glycine 100-500 uM; histological measurements
# Description: Rodent neuron cell cultures are treated with anti-NMDAR antibodies as described in Hughes E G et al., J Neurosci 2012 30(17):5866-75. […] The determination of receptors localization and other relevant measures is based on histological measurements.
# Immunohistochemical methods will be applied to document (a) localization of NMDAR and NR1 and NR2 subunits; (b) loss of oligodendrocytes; (c) changes in astrocytes (S100beta) and microglia (cd11b), (d) expression of neurotrophic factors: brain derived neurotrophic factor (BDNF), nerve growth factor (NGF) and ciliary neurotrophic factor (CNTF); (e) markers of neurogenesis—doublecortin (17) and apoptosis—caspase3 (9). Quantification of histological measurements is based on images in several cortical subregions, striatum, […], hippocampus, and cerebellum.
smiles,measurement,value
NCC(=O)O [Glycine],Effect on NMDAR intracellular localization,reversing receptor intracellular localization
